pIC50: −log10 of the molar value. Where a name gives a salt, the structure may show the parent alone.
Key:
[1] = biological target: T1, ER (Homo sapiens (Human), UniProt P03372); experiment: In-cell western (ICW) ER degradation assay in MCF-7 cells; format: cell-based; conditions: MCF7, 16 hrs; for DC50: ER degradation; for Dmax: MCF7, maximal ER degradation; for MCF7 Dmax %: maximal ER degradation
[2] = biological target: T1, ER; experiment: In-cell western (ICW) ER degradation assay in T47D cells; format: cell-based; conditions: 16 hrs; for DC50: ER degradation; for Dmax / T47D Dmax %: maximal ER degradation
[3] = biological target: CRBN/DDB1 (Homo sapiens (Human), UniProt Q96SW2); experiment: HTRF binding assay to CRBN/DDB1; conditions: read-out: CRBN HTRF IC50
Experimental: The binding potency was determined using HTRF assay technology (Perkin Elmer). Compounds were serially diluted in DMSO and 0.2 μL volume was transferred to white 384-well plate.

T1 sequence (P03372 whole entry): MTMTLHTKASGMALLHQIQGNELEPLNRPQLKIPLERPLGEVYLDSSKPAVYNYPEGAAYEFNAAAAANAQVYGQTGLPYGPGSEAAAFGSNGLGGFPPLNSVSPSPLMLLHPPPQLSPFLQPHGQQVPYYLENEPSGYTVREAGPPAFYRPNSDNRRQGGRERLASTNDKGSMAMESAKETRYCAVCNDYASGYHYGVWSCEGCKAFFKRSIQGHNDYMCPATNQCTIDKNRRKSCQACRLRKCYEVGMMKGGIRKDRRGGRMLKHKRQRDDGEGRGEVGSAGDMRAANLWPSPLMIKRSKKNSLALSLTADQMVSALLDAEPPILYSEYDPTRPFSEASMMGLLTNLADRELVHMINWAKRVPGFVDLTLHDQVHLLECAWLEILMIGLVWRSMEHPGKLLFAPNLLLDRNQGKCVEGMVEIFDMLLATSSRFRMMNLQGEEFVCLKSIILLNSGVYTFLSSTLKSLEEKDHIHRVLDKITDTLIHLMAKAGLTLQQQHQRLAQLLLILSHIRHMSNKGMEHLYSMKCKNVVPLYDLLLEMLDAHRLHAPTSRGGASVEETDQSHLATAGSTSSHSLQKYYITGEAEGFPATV
Sequence of CRBN/DDB1 (Q96SW2 whole entry): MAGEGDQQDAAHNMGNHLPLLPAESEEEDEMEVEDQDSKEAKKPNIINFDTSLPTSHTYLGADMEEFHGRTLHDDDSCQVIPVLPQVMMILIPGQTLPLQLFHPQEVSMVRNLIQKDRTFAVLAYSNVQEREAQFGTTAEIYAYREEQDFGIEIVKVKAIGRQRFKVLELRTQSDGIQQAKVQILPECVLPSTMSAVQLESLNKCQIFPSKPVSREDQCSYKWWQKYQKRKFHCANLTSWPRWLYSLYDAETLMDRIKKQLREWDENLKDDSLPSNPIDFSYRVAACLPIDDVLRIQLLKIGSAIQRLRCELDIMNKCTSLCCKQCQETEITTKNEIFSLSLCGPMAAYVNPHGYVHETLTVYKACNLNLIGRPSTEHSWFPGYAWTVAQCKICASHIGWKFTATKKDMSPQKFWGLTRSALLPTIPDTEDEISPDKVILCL
Sequence of CRBN/DDB1 (Q16531 whole entry partner): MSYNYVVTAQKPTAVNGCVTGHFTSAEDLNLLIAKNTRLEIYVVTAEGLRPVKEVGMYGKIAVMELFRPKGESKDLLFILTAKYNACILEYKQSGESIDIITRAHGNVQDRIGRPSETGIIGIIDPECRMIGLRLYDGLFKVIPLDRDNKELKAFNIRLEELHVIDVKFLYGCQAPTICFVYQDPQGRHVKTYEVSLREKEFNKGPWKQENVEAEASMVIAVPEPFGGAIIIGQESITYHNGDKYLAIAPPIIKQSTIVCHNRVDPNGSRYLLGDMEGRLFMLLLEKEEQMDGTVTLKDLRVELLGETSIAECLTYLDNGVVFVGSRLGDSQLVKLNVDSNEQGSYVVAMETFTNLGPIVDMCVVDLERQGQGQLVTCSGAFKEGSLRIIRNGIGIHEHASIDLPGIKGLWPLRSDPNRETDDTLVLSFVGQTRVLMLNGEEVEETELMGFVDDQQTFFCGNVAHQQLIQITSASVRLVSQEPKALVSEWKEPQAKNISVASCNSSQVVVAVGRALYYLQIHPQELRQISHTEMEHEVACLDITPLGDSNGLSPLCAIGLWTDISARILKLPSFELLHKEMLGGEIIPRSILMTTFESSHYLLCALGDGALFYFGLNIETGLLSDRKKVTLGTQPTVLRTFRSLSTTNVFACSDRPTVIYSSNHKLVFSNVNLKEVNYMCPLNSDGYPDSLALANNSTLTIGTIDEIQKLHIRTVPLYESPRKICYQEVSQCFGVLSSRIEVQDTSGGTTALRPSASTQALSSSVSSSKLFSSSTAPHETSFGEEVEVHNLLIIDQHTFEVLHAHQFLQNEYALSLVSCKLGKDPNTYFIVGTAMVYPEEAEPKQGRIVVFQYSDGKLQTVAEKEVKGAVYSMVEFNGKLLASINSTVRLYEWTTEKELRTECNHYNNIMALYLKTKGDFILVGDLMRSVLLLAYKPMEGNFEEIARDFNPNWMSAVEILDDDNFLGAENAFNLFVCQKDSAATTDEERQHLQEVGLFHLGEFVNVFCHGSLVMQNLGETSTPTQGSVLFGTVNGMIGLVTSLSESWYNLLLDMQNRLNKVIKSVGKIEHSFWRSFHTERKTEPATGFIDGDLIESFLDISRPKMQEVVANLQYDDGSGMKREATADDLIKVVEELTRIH

Compound	DC50 [1] [nM]	Dmax [1] [%]	DC50 [2] [nM]	Dmax [2] [%]	pIC50 [3]	MCF7 Dmax % [1]	T47D Dmax % [2]
O=C1CCC(NC(=O)c2ccc(N3CCN(CC4CC5(CCN(c6ccc([C@@H]7c8ccc(O)cc8OC[C@@H]7c7ccccc7)cc6)CC5)C4)CC3)cn2)C(=O)N1 (stereo partly drawn) [Compound A85, N-(2,6-dioxopiperidin-3-yl)-5-(4-((7-(4-((3S,4R)-7-hydroxy-3-phenylchroman-4-yl)phenyl)-7-azaspiro[3.5]nonan-2-yl)methyl)piperazin-1-yl)picolinamide]	< 1	50 to 75	1 to 10	50 to 75	< 5.30	–	–
COc1cc(N2CCC(CN3CCN4c5ccc6c(c5OC[C@H]4C3)CN(C3CCC(=O)NC3=O)C6=O)CC2)c(F)cc1[C@H]1c2ccc(O)cc2OC[C@H]1c1ccccc1 (stereo partly drawn) [Compound A105, (R)-3-((S)-7-((1-(2-fluoro-4-((3R,4R)-7-hydroxy-3-phenylchroman-4-yl)-5-methoxyphenyl)piperidin-4-yl)methyl)-1-oxo-1,3,5,5a,6,7,8,9-octahydro-2H-pyrazino[1′,2′:4,5][1,4]oxazino[2,3-e]isoindol-2-yl)piperidine-2,7-dione]	10 to 100	25 to 50	1 to 10	25 to 50	> 7.30	–	–
O=C1CC[C@H](NC(=O)c2ccc3c(n2)OC[C@H]2CN(C[C@@H]4COC5(CCN(c6ccc([C@@H]7c8ccc(O)cc8OC[C@@H]7c7ccccc7)cc6)CC5)C4)CCN32)C(=O)N1 [Compound A148, (R)-N-((S)-2,6-dioxopiperidin-3-yl)-3-(((R)-8-(4-((3S,4R)-7-hydroxy-3-phenylchroman-4-yl)phenyl)-1-oxa-8-azaspiro[4.5]decan-3-yl)methyl)-1,2,3,4,4a,5-hexahydropyrazino[1,2-d]pyrido[2,3-b][1,4]oxazine-8-carboxamide]	< 1	50 to 75	< 1	50 to 75	5.30 to 6.30	–	–
O=C1CC[C@H](N2Cc3c(ccc4c3OC[C@H]3CN(C[C@@H]5COC6(CCN(c7ccc([C@@H]8c9ccc(O)cc9OC[C@@H]8c8ccccc8)cc7F)CC6)C5)CCN43)C2=O)C(=O)N1 (single isomer, unassigned) [Compound A157]	< 1	50 to 75	< 1	≥ 75	> 7.30	–	–
O=C1CCC(N2Cc3cc(N4CCN(CC5CC6(CCN(c7ccc([C@@H]8c9ccc(O)cc9OC[C@@H]8c8ccccc8)cn7)CC6)C5)CC4)ccc3C2=O)C(=O)N1 (single isomer, unassigned) [Compound A67]	> 100	–	10 to 100	–	6.30 to 7.30	D (“D”; <25%)	D (“D”; <25%)
O=C1CCC(Nc2ccc(C34CCN(CC5COC6(CCN(c7ccc([C@@H]8c9ccc(O)cc9OC[C@@H]8c8ccccc8)cc7F)CC6)C5)CC3C4(F)F)cc2)C(=O)N1 (stereo partly drawn) [Compound A159, 3-((4-(7,7-difluoro-3-(((R)-8-(2-fluoro-4-((3S,4R)-7-hydroxy-3-phenylchroman-4-yl)phenyl)-1-oxa-8-azaspiro[4.5]decan-3-yl)methyl)-3-azabicyclo[4.1.0]heptan-6-yl)phenyl)amino)piperidine-2,6-dione]	1 to 10	25 to 50	1 to 10	50 to 75	5.30 to 6.30	–	–
O=C1CC[C@@H](N2Cc3cc4c(cc3C2=O)OC[C@@H]2CN(C[C@@H]3COC5(CCN(c6ccc([C@H]7c8ccc(O)cc8OC[C@H]7c7ccccc7)cc6)CC5)C3)CCN42)C(=O)N1 [Compound A151, (R)-3-((S)-3-(((R)-8-(4-((3R,4S)-7-hydroxy-3-phenylchroman-4-yl)phenyl)-1-oxa-8-azaspiro[4.5]decan-3-yl)methyl)-8-oxo-1,2,3,4,4a,5,8,10-octahydro-9H-pyrazino[1′,2′:4,5][1,4]oxazino[2,3-f]isoindol-9-yl)piperidine-2,6-dione]	< 1	50 to 75	< 1	50 to 75	6.30 to 7.30	–	–
O=C1CC[C@@H](Nc2ccc(C3CCN(C[C@@H]4COC5(CCN(c6ccc([C@H]7c8ccc(O)cc8OC[C@H]7c7ccccc7)cc6)CC5)C4)CC3)c(F)c2)C(=O)N1 (mixture of isomers) [Compound A162, 3-((3-fluoro-4-(1-(((R)-8-(4-((3RS, 4SR)-7-hydroxy-3-phenylchroman-4-yl)phenyl)-1-oxa-8-azaspiro[4.5]decan-3-yl)methyl)piperidin-4-yl)phenyl)amino)piperidine-2,6-dione]	< 1	25 to 50	< 1	≥ 75	> 7.30	–	–
O=C1CC[C@@H](Nc2ccc(C3CCN(CC4CCC5(CC4)CN(c4ccc([C@@H]6c7ccc(O)cc7OC[C@@H]6c6ccccc6)cc4)C5)CC3)cc2)C(=O)N1 (single isomer, unassigned) [Compound A141]	1 to 10	50 to 75	1 to 10	50 to 75	6.30 to 7.30	–	–
O=C1CCC(NC(=O)c2ccc(N3CCC(CN4CCN(c5ccc([C@H]6c7ccc(O)cc7OC[C@H]6c6ccccc6)cc5)CC4)CC3)cn2)C(=O)N1 (single isomer, unassigned) [Compound A128]	< 1	–	< 1	50 to 75	< 5.30	B (“B”: >50% and <75%)	–
COc1cc(N2CCC(CN3CCC4(CC3)COc3c4ccc4c3CN(C3CCC(=O)NC3=O)C4=O)CC2)ccc1[C@H]1c2ccc(O)cc2OC[C@H]1c1ccccc1 (stereo partly drawn) [Compound A135, 3-(1′-((1-(4-((3R,4S)-7-hydroxy-3-phenylchroman-4-yl)-3-methoxyphenyl)piperidin-4-yl)methyl)-6-oxo-6,8-dihydro-2H,7H-spiro[furo[2,3-e]isoindole-3,4′-piperidin]-7-yl)piperidine-2,6-dione]	< 1	25 to 50	< 1	25 to 50	> 7.30	–	–
COC[C@H](C(=O)N1Cc2cc3c(cc2C1)C(=O)N(C1CCC(=O)NC1=O)C3)N1CCC2(CCN(c3ccc([C@@H]4c5ccc(O)cc5OC[C@@H]4c4ccccc4)cc3)CC2)CC1 (single isomer, unassigned) [Compound A60]	< 1	25 to 50	1 to 10	< 25	6.30 to 7.30	–	–
O=C1CCC(N2C(=O)c3cc4c(cc3C2=O)CN(C(=O)CN2CC3(CCN(c5ccc([C@H]6c7ccc(O)cc7OC[C@H]6c6ccccc6)cc5)CC3)C2)C4)C(=O)N1 (single isomer, unassigned) [Compound A55, formate]	> 100	< 25	> 100	< 25	5.30 to 6.30	–	–
COc1cc(N2CCC(CN3CCN4c5ccc(C(=O)NC6CCC(=O)NC6=O)nc5OC[C@H]4C3)CC2)ccc1C1c2ccc(O)cc2OCC1c1ccccc1 (stereo in doubt) [Compound A134, (4aR)—N-(2,6-dioxopiperidin-3-yl)-3-((1-(4-((3R,4S)-7-hydroxy-3-phenylchroman-4-yl)-3-methoxyphenyl)piperidin-4-yl)methyl)-1,2,3,4,4a, 5-hexahydropyrazino[1,2-d]pyrido[2,3-b][1,4]oxazine-8-carboxamide]	< 1	≥ 75	< 1	≥ 75	5.30 to 6.30	–	–
O=C1CCC(N2Cc3cc4c(cc3C2=O)OC[C@@H]2CN(CC3CCC5(CC3)CN(c3ccc([C@@H]6c7ccc(O)cc7OC[C@@H]6c6ccccc6)cc3)C5)CCN42)C(=O)N1 (stereo partly drawn) [Compound A63, 3-((S)-3-((2-(4-((3S,4R)-7-hydroxy-3-phenylchroman-4-yl)phenyl)-2-azaspiro[3.5]nonan-7-yl)methyl)-8-oxo-1,2,3,4,4a,5,8,10-octahydro-9H-pyrazino[1′,2′:4,5][1,4]oxazino[2,3-f]isoindol-9-yl)piperidine-2,6-dione]	> 100	–	> 100	–	5.30 to 6.30	D (“D”; <25%)	D (“D”; <25%)
O=C1CC[C@@H](NC(=O)c2ccc(N3CCC(CN4CC5(CCN(c6ccc([C@H]7c8ccc(O)cc8OC[C@H]7c7ccccc7)cc6)CC5)C4)CC3)cn2)C(=O)N1 (single isomer, unassigned) [Compound A111]	< 1	50 to 75	< 1	50 to 75	5.30 to 6.30	–	–
O=C1CCC(Nc2ccc3c(c2)OC[C@H]2CN(CC4CCN(c5ccc([C@@H]6c7ccc(O)cc7OC[C@@H]6c6ccccc6)cc5)CC4)CCN32)C(=O)N1 (single isomer, unassigned) [Compound A91, hydrochloride]	1 to 10	–	1 to 10	–	< 5.30	–	–
O=C1CCC(N2Cc3cc4c(cc3C2=O)OC[C@@H]2CN(CC3CCN(c5ccc([C@H]6c7ccc(O)cc7OC[C@H]6c6ccccc6)cn5)CC3)CCN42)C(=O)N1 (single isomer, unassigned) [Compound A61]	1 to 10	25 to 50	1 to 10	50 to 75	6.30 to 7.30	–	–
O=C1CC[C@@H](N2Cc3cc4c(cc3C2=O)OC[C@H]2CN(C[C@@H]3COC5(CCN(c6ccc([C@H]7c8ccc(O)cc8OC[C@H]7c7ccccc7)cc6F)CC5)C3)CCN42)C(=O)N1 [Compound A160, (R)-3-((R)-3-(((R)-8-(2-fluoro-4-((3R,4S)-7-hydroxy-3-phenylchroman-4-yl)phenyl)-1-oxa-8-azaspiro[4.5]decan-3-yl)methyl)-8-oxo-1,2,3,4,4a,5,8,10-octahydro-9H-pyrazino[1′,2′:4,5][1,4]oxazino[2,3-f]isoindol-9-yl)piperidine-2,6-dione]	1 to 10	< 25	1 to 10	25 to 50	5.30 to 6.30	–	–

Source: US20260000676A1, “CHROMAN DERIVATIVES AS ESTROGEN RECEPTOR DEGRADERS” (THE REGENTS OF THE UNIVERSITY OF MICHIGAN, priority 2022, published 2026)
